Measured values as given in patent US20180000136A1, “BIOLOGICAL INORGANIC COMPOUND COMPLEX HAVING REDUCED OXYGEN AND HIGH REDUCING ABILITY” (priority 2011, published 2018).

Columns and labels:
[1] = molecular target: LPO-H2O2 reaction (Bos taurus, UniProt P80025); assay: Compound II formation from the peroxidase-H2O2 reaction (OD 430 nm); assay type: biochemical; details: KI at 1 μM
Text: Compound II, however, is relatively stable and can be measured at OD of 430 nm. The compound II level is well maintained after mixing LPO and H2O2 (Referring to FIG. 28). […] Since the compound II is derived from the compound I, the inhibition of compound I is also understandable.

[2] = Degradation of H2O2 in a cell-free system (Amplex red); assay type: biochemical; details: 20 μM H2O2, 30 min at 37° C.
Method: Then, Amplex red (Invitrogen) is added and incubated for 30 min in a dark room. The absorbance at 560 nm is measured by a microplate reader (Molecular Devices, Sunnyvale, Calif.).

[3] = medication of Graves' disease; Non-patent documents 1 and 2; cited from earlier work

Compound | compound II formation [1] | degradation of H2O2 [2] | side-effects [3]
[I-].[K+] [KI] | partially inhibits | – | –
Cn1cc[nH]c1=S [MMI, methimazole] | – | can degrade H2O2 although higher concentration of MMI is required | an allergic reaction, an increase of a variety of enzyme levels in liver, a joint pain and an agranulocytosis in case of a severe condition
CCCc1cc(=O)[nH]c(=S)[nH]1 [PTU, propylthiouracil] | – | – | severe liver damage
